Results: the NIST ThermoML archive (doi:10.1016/j.jct.2006.07.021)
Values joined by “and” are separate entries in the source; they are usually repeats but may differ in a detail not shown here. Equal values may be shown once.

Experiment: xn = mol fraction of the nth substance listed
Settings: 101 kPa, Liquid, Pycnometric method

OCCO [1,2-ethanediol] + NC=O
x2 = 0
Settings	mass density [kg/m3]
293.15 K	1113.57
303.15 K	1106.51
313.15 K	1099.45

CC(O)CO (centres undefined) [1,2-propanediol] + NC=O
x2 = 0
Settings	mass density [kg/m3]
293.15 K	1036.38
298.15 K	1032.76
303.15 K	1029.14
308.15 K	1025.52
313.15 K	1021.9
318.15 K	1018.28

CCO [ethanol] + NC=O
x2 = 0
Settings	mass density [kg/m3]
293.15 K	789.46
298.15 K	785.2
303.15 K	780.75
308.15 K	776.42
313.15 K	771.81
318.15 K	767.38

NC=O [formamide] + CC(O)CO
mass density [kg/m3]
Settings	293.15 K	298.15 K	303.15 K	308.15 K	313.15 K	318.15 K
x1 = 0.0567	1038.29	1034.56	1030.82	1027.12	1023.41	1019.67
x1 = 0.1191	1040.52	1036.78	1033.03	1029.25	1025.52	1021.77
x1 = 0.1881	1043.47	1039.69	1035.91	1032.11	1028.33	1024.51
x1 = 0.2649	1047.35	1043.5	1039.65	1035.85	1032.01	1028.19
x1 = 0.3409	1051.67	1047.79	1043.96	1040.09	1036.22	1032.37
x1 = 0.3904	1054.79	1050.91	1047.02	1043.15	1039.28	1035.44
x1 = 0.4478	1058.92	1055.02	1051.08	1047.15	1043.24	1039.31
x1 = 0.4936	1062.42	1058.49	1054.56	1050.68	1046.76	1042.86
x1 = 0.5578	1068.01	1064.07	1060.1	1056.12	1052.18	1048.22
x1 = 0.6262	1074.52	1070.55	1066.6	1062.64	1058.66	1054.73
x1 = 0.6838	1080.96	1076.95	1072.95	1068.91	1064.9	1060.87
x1 = 0.7544	1089.83	1085.77	1081.67	1077.58	1073.51	1069.44
x1 = 0.8295	1100.75	1096.63	1092.5	1088.36	1084.26	1080.16
x1 = 0.8818	1109.7	1105.53	1101.4	1097.27	1093.1	1088.94
x1 = 0.9392	1120.57	1116.44	1112.31	1108.16	1104.04	1099.88
x1 = 1	1133	1129	1125	1121	1117	1113

NC=O [formamide] + CCCO
mass density
Settings	293.15 K	298.15 K	303.15 K	308.15 K	313.15 K	318.15 K
x1 = 0.0557	814.02 kg/m3	810.06 kg/m3	806.09 kg/m3	802.16 kg/m3	798.22 kg/m3	794.25 kg/m3
x1 = 0.1172	826.05 kg/m3	822.13 kg/m3	818.2 kg/m3	814.24 kg/m3	810.33 kg/m3	806.4 kg/m3
x1 = 0.1854	840.26 kg/m3	836.35 kg/m3	832.44 kg/m3	828.51 kg/m3	824.6 kg/m3	820.65 kg/m3
x1 = 0.2615	857.42 kg/m3	853.48 kg/m3	849.54 kg/m3	845.65 kg/m3	841.72 kg/m3	837.81 kg/m3
x1 = 0.3469	878.23 kg/m3	874.3 kg/m3	870.42 kg/m3	866.5 kg/m3	862.58 kg/m3	858.68 kg/m3
x1 = 0.3912	889.89 kg/m3	885.98 kg/m3	882.06 kg/m3	878.16 kg/m3	874.26 kg/m3	870.36 kg/m3
x1 = 0.4434	904.36 kg/m3	900.47 kg/m3	896.54 kg/m3	892.62 kg/m3	888.72 kg/m3	884.8 kg/m3
x1 = 0.4986	920.67 kg/m3	916.75 kg/m3	912.83 kg/m3	908.96 kg/m3	905.05 kg/m3	901.16 kg/m3
x1 = 0.5534	937.91 kg/m3	934.03 kg/m3	930.12 kg/m3	926.2 kg/m3	922.32 kg/m3	918.42 kg/m3
x1 = 0.6216	961.03 kg/m3	957.12 kg/m3	953.23 kg/m3	949.33 kg/m3	945.41 kg/m3	941.54 kg/m3
x1 = 0.68	982.32 kg/m3	978.44 kg/m3	974.57 kg/m3	970.66 kg/m3	966.78 kg/m3	962.88 kg/m3
x1 = 0.7535	1011.59 kg/m3	1007.72 kg/m3	1003.81 kg/m3	999.91 kg/m3	996.03 kg/m3	992.15 kg/m3
x1 = 0.827	1043.7 kg/m3	1039.83 kg/m3	1035.95 kg/m3	1032.06 kg/m3	1028.21 kg/m3	1024.36 kg/m3
x1 = 0.8832	1070.44 kg/m3	1066.54 kg/m3	1062.68 kg/m3	1058.82 kg/m3	1054.92 kg/m3	1051.03 kg/m3
x1 = 0.9328	1095.56 kg/m3	1091.65 kg/m3	1087.74 kg/m3	1083.81 kg/m3	1079.91 kg/m3	1075.97 kg/m3
x1 = 1	–	1133 kg/m3 and 1129 kg/m3	1125 kg/m3	1121 kg/m3	1117 kg/m3	1113 kg/m3

NC=O [formamide] + CCO
mass density [kg/m3]
Settings	293.15 K	298.15 K	303.15 K	308.15 K	313.15 K	318.15 K
x1 = 0.0698	807.47	803.3	799.14	794.94	790.75	786.59
x1 = 0.1412	826.72	822.6	818.49	814.41	810.28	806.17
x1 = 0.2032	844.13	840.06	835.99	831.94	827.87	823.84
x1 = 0.268	862.91	858.91	854.91	850.86	846.85	842.82
x1 = 0.3234	879.65	875.69	871.68	867.71	863.74	859.75
x1 = 0.3874	899.52	895.58	891.65	887.7	883.75	879.8
x1 = 0.4365	915.29	911.35	907.45	903.54	899.61	895.7
x1 = 0.4962	935.06	931.19	927.32	923.4	919.52	915.62
x1 = 0.5423	950.83	946.93	943.06	939.2	935.3	931.42
x1 = 0.5958	969.63	965.8	961.95	958.11	954.29	950.42
x1 = 0.6456	987.65	983.82	979.98	976.18	972.35	968.54
x1 = 0.708	1010.93	1007.05	1003.21	999.36	995.49	991.62
x1 = 0.7748	1036.9	1033.01	1029.13	1025.26	1021.35	1017.44
x1 = 0.8532	1068.57	1064.68	1060.75	1056.82	1052.93	1049.03
x1 = 0.9282	1100.66	1096.71	1092.76	1088.83	1084.87	1080.95
x1 = 1	1133	1129	1125	1121	1117	1113

NC=O [formamide] + OCCO
mass density [kg/m3]
Settings	293.15 K	298.15 K	303.15 K	308.15 K	313.15 K	318.15 K
x1 = 0.0612	1114.13	1110.54	1106.94	1103.38	1099.81	1096.21
x1 = 0.1204	1114.54	1110.93	1107.31	1103.66	1100.06	1096.44
x1 = 0.1859	1115.04	1111.39	1107.74	1104.07	1100.42	1096.73
x1 = 0.2524	1115.55	1111.84	1108.13	1104.47	1100.77	1097.09
x1 = 0.3302	1116.11	1112.36	1108.66	1104.92	1101.18	1097.46
x1 = 0.3926	1116.61	1112.86	1109.1	1105.36	1101.62	1097.88
x1 = 0.4517	1117.2	1113.44	1109.64	1105.85	1102.08	1098.29
x1 = 0.5102	1117.85	1114.01	1110.17	1106.38	1102.55	1098.74
x1 = 0.5643	1118.48	1114.66	1110.81	1106.95	1103.13	1099.29
x1 = 0.6101	1119.18	1115.31	1111.46	1107.6	1103.72	1099.89
x1 = 0.6596	1120.09	1116.22	1112.36	1108.46	1104.59	1100.7
x1 = 0.7454	1122.11	1118.19	1114.23	1110.28	1106.35	1102.42
x1 = 0.8195	1124.35	1120.37	1116.38	1112.38	1108.42	1104.46
x1 = 0.8883	1127.02	1122.99	1119	1115.01	1110.98	1106.96
x1 = 0.9491	1130.03	1125.99	1121.95	1117.89	1113.86	1109.79
x1 = 1	1133	1129	1125	1121	1117	1113

CCCO [propan-1-ol] + NC=O
x2 = 0
Settings	mass density [kg/m3]
293.15 K	803.71
298.15 K	799.74
303.15 K	795.77
308.15 K	791.8
313.15 K	787.83
318.15 K	783.86
